From PubChem BioAssay (NCI)
“And” between values parts separate entries of the source, which are not always exact repeats. Equal entries are not always repeated.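 In this assay, cells in 96-well plates receive the compound at five concentrations for 48 hours. Endpoints are linearly interpolated between the surrounding concentrations. GI50: concentration for 50% inhibition of growth. TGI denotes the concentration required for complete inhibition of growth.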

What was measured:
Assay in all cases: NCI-60 cell line screen, 48 h
[1] = test system: RXF 393 renal
[2] = test system: U251 CNS
[3] = test system: SNB-75 CNS
[4] = test system: SK-MEL-2 melanoma
[5] = test system: SK-MEL-5 melanoma
[6] = test system: MALME-3M melanoma
[7] = test system: A498 renal
[8] = test system: LXFL 529 NSCLC
[9] = test system: BT-549 breast
[10] = test system: DMS 273 small cell lung

COc1nc(NC2OC(COC(C)=O)C(OC(C)=O)C(OC(C)=O)C2OC(C)=O)c(N=C(C)C(C)=O)c(=O)n1C (stereo unspecified)
TGI [1]: > 100 µM | TGI [2]: > 100 µM | TGI [3]: > 100 µM | TGI [4]: > 100 µM | TGI [5]: > 100 µM | TGI [6]: > 100 µM | TGI [7]: > 100 µM | TGI [8]: > 100 µM

O=c1oc2ccc(F)cc2c(=O)n1-c1ccc(I)cc1F
GI50 [1]: 0.543 µM | TGI [1]: 3.3 µM | GI50 [2]: 0.469 µM | TGI [2]: > 100 µM | GI50 [3]: 0.368 µM | TGI [3]: 10.4 µM | GI50 [4]: 0.344 µM | TGI [4]: 1.9 µM | GI50 [5]: 0.224 µM | TGI [5]: 0.521 µM | GI50 [9]: 0.486 µM | TGI [9]: 4.09 µM | GI50 [6]: 0.305 µM | TGI [6]: 1.17 µM | GI50 [7]: 0.191 µM | TGI [7]: 0.646 µM

O=c1cc(-c2ccccc2)oc2c(O)c(O)ccc12
GI50 [1]: 9.95 µM | TGI [1]: 52.7 µM | GI50 [2]: 7.72 µM | TGI [2]: > 100 µM | GI50 [3]: 28.7 µM | TGI [3]: > 100 µM | GI50 [4]: 44.9 µM | TGI [4]: > 100 µM | GI50 [5]: 12.5 µM | TGI [5]: 45.2 µM | GI50 [9]: 8.36 µM | TGI [9]: 42.3 µM | GI50 [6]: 17.4 µM | TGI [6]: 60.2 µM | GI50 [7]: 21.5 µM | TGI [7]: > 100 µM

COc1cc(OCCCN2CCCC2)ccc1Nc1ncc(Cl)c(Nc2ccccc2P(C)(C)=O)n1
GI50 [1]: 0.81 µM | TGI [1]: 3.23 µM | GI50 [2]: 5.43 µM | TGI [2]: 19.8 µM | GI50 [3]: 2.55 µM | TGI [3]: 11.8 µM | GI50 [4]: 2.24 µM | TGI [4]: 6.21 µM | GI50 [5]: 3.71 µM | TGI [5]: 15.8 µM | GI50 [9]: 3.86 µM | TGI [9]: 11.7 µM | GI50 [6]: 6.06 µM | TGI [6]: 22.6 µM | GI50 [7]: 0.175 µM | TGI [7]: 1.12 µM

N#Cc1c(N)c(C(=O)c2ccc3c(c2)OCCO3)n2c1CCCC2
GI50 [1]: 2.29 µM | TGI [1]: 17.9 µM | GI50 [2]: 4.07 µM | TGI [2]: > 100 µM | GI50 [3]: 1.8 µM | TGI [3]: 7.48 µM | GI50 [4]: 4.06 µM | TGI [4]: > 100 µM | GI50 [5]: 3.32 µM | TGI [5]: > 100 µM | GI50 [9]: 4.8 µM | TGI [9]: > 100 µM | GI50 [6]: 2.6 µM | TGI [6]: > 100 µM | GI50 [7]: 1.79 µM | TGI [7]: 8.03 µM

O=C(N/C(=C\c1cccc([N+](=O)[O-])c1)c1nc2c3c(ccc2[nH]1)C(=O)c1ccccc1C3=O)c1ccccc1
TGI [2]: > 100 µM | TGI [3]: > 100 µM | TGI [4]: > 100 µM | TGI [5]: > 100 µM | TGI [6]: > 100 µM | TGI [7]: > 100 µM | TGI [8]: > 100 µM

O=C1NN(C(=O)c2ccccc2)C(c2ccc(Cl)c(Cl)c2)=C/C1=C\c1ccccc1[N+](=O)[O-]
GI50 [1]: 1.67 µM | TGI [1]: 5.35 µM | GI50 [2]: 0.897 µM | TGI [2]: > 6.75 µM | GI50 [3]: 1.27 µM | TGI [3]: > 6.75 µM | GI50 [4]: 3.11 µM | TGI [4]: > 6.75 µM | GI50 [5]: 1.17 µM | TGI [5]: 2.19 µM | GI50 [9]: 1.18 µM | TGI [9]: 5.4 µM | GI50 [6]: 4.53 µM | TGI [6]: > 6.75 µM | GI50 [7]: 2.21 µM | TGI [7]: 6.21 µM

COc1cccc(C2SC(C)C(=O)N2NC(=O)C(O)c2ccccc2)c1 (stereo unspecified)
GI50 [1]: > 100 µM | TGI [1]: > 100 µM | GI50 [2]: > 100 µM | TGI [2]: > 100 µM | GI50 [3]: > 100 µM | TGI [3]: > 100 µM | GI50 [4]: > 100 µM | TGI [4]: > 100 µM | GI50 [5]: > 100 µM | TGI [5]: > 100 µM | GI50 [9]: > 100 µM | TGI [9]: > 100 µM | GI50 [6]: > 100 µM | TGI [6]: > 100 µM | GI50 [7]: > 100 µM | TGI [7]: > 100 µM

Oc1c(CN2CCCCC2)ccc2cccnc12
GI50 [1]: 4.15 µM | TGI [1]: 34.8 µM | GI50 [2]: 3.61 µM | TGI [2]: 30.9 µM | GI50 [3]: 5.67 µM | TGI [3]: 74.3 µM | GI50 [4]: 4.03 µM | TGI [4]: 24.4 µM | GI50 [5]: 3.56 µM | TGI [5]: 42.6 µM | GI50 [9]: 10.4 µM | TGI [9]: > 100 µM | GI50 [6]: 7.18 µM | TGI [6]: 52.5 µM | GI50 [7]: 5.46 µM | TGI [7]: 21.3 µM

CN1CCN(c2ccncc2S(=O)(=O)N2CCN(C)CC2)CC1
TGI [1]: > 100 µM | TGI [2]: > 100 µM | TGI [3]: > 100 µM | TGI [4]: > 100 µM | TGI [5]: > 100 µM | TGI [9]: > 100 µM | TGI [6]: > 100 µM | TGI [7]: > 100 µM

C[C@]1(c2nc3c(C(N)=O)cccc3[nH]2)CCCN1
GI50 [1]: > 90.3 µM | TGI [1]: > 100 µM | GI50 [2]: 75.9 µM and > 100 µM | TGI [2]: > 100 µM | GI50 [3]: > 100 µM | TGI [3]: > 100 µM | GI50 [4]: 79.4 µM and > 100 µM | TGI [4]: > 100 µM | GI50 [5]: > 76.4 µM and 98.5 µM | TGI [5]: > 100 µM | GI50 [9]: > 100 µM | TGI [9]: > 100 µM | GI50 [6]: 43.4 µM and > 85.8 µM | TGI [6]: 97.9 µM and > 100 µM | GI50 [7]: > 100 µM | TGI [7]: > 100 µM

Cn1cc(-c2ncnc3ccc(-c4cnc(Cl)c(NS(C)(=O)=O)c4)cc23)c2ccccc21
GI50 [1]: 0.435 µM | TGI [1]: 4.05 µM | GI50 [2]: 1.65 µM | TGI [2]: 23.4 µM | GI50 [3]: 0.127 µM | TGI [3]: 1.98 µM | GI50 [4]: 1.16 µM | TGI [4]: 4.85 µM | GI50 [5]: 1.2 µM | TGI [5]: 3.07 µM | GI50 [9]: 0.566 µM | TGI [9]: 7.68 µM | GI50 [6]: 0.227 µM | TGI [6]: 2.48 µM | GI50 [7]: 0.207 µM | TGI [7]: 1.4 µM

[Mn+3].[O-][Cl+3]([O-])([O-])O.[O-]c1ccccc1C=NCCN1CC1.[O-]c1ccccc1C=NCCN1CC1
GI50 [1]: 63 µM | TGI [1]: > 100 µM | GI50 [2]: 15.7 µM | TGI [2]: 38.6 µM | GI50 [3]: 25.6 µM | TGI [3]: 70.1 µM | GI50 [4]: 48.5 µM | TGI [4]: > 100 µM | GI50 [5]: 17.6 µM | TGI [5]: 80.8 µM | GI50 [9]: 19.4 µM | TGI [9]: 50.8 µM | GI50 [6]: 19.7 µM | TGI [6]: 39.9 µM | GI50 [7]: > 100 µM | TGI [7]: > 100 µM

C=C1C2CC(OC(C)=O)C3(C)C(c4ccoc4)OC(=O)[C@@H](O)[C@]13OC1C[C@H](OC(C)=O)C(C)(C)[C@H](C(O)C(=O)OC)[C@]12C (stereo partly specified)
TGI [2]: > 100 µM | TGI [3]: > 100 µM | TGI [4]: > 100 µM | TGI [5]: > 100 µM | TGI [7]: > 100 µM | TGI [10]: > 100 µM | TGI [8]: > 100 µM

Cc1cc(C)c([I+]c2c(C)cc(C)cc2C)c(C)c1
GI50 [1]: 0.398 µM | TGI [1]: 1.55 µM | GI50 [2]: 0.32 µM | TGI [2]: 1.38 µM | GI50 [3]: 0.342 µM | TGI [3]: 1.39 µM | GI50 [4]: 0.482 µM | TGI [4]: 1.61 µM | GI50 [5]: 0.201 µM | TGI [5]: 0.476 µM | GI50 [9]: 0.466 µM | TGI [9]: 1.59 µM | GI50 [6]: 0.37 µM | TGI [6]: 1.46 µM | GI50 [7]: 1.56 µM | TGI [7]: 3.64 µM
